Legend:
Format in all cases: cell-based
[1] = tested on: human periosteum derived cells (hPDCs); experiment: ALP/Alizarin Red staining of calcium deposits (mineralization) on hPDCs; details: hPDCs after OM and TGFβ1 one week, then 4 days
Description: FIG. 9: Gene expression of early (A) and late (B) bone markers in hPDCs treated with GM, OM or GM/OM supplemented with a growth factor mix (GF) containing TNFα, EGF, TGFβ1 and IL6. C) ALP staining of hPDCs that were stimulated with OM and TGFβ1 for one week followed by GM with one factor in the absence or presence of ascorbic acid for 2 days. D) ALP/Alizarin Red staining to stain calcium deposits on hPDCs pre-treated with OM and TGFβ1 for one week followed by GM with six minus one factors for four days in the absence or presence of ascorbic acid.
To overcome the inhibitory effect of OM on later stages of osteoblastogenesis, we considered to explore a two stage protocol wherein hPDCs were treated with OM and TGFβ1 to stimulate proliferation and ALP activity. After six days, medium was changed to growth medium supplemented with six factors (ascorbic acid, TNFα, IL6, EGF, Ca, Pi) minus one factor for 4 days. At this stage, ascorbic acid was included as a factor, because it promoted ALP activity (FIG. 9C) and mineralization (FIG. 9D) in vitro. […] Gene expression levels of RUNX2 were decreased when ascorbic acid was omitted from the mix. […] Furthermore, EGF, calcium and phosphate were required for DLX5 transcription, but at the used concentrations, calcium and phosphate decreased iBSP mRNA levels (FIG. 8C).

[2] = tested on: human periosteum derived cells (hPDCs); experiment: Alkaline phosphatase activity / ALP staining in hPDCs
Protocol: (§1) FIG. 8: A) Identification of factors that drive proliferation of hPDCs. A cell pool of hPDCs was either treated with growth medium (GM, negative control), medium containing eight factors (all factors) or medium containing eight minus one factor for 8 days. The factors are osteogenic medium (OM), calcium ions (Ca, 6 mM), phosphate ions (Pi, 4 mM), TNFα (50 ng/ml), IL6 (10 ng/ml), Wnt3A (50 ng/ml), EGF (20 ng/ml), and TGFβ1 (10 ng/ml). Proliferation is expressed as population doublings and was measured after 8 days after stimulation (n=3, error bars: standard deviation). The horizontal line is a reference line set on the proliferation in the “all factor” condition. B) Identification of factors that drive alkaline phosphatase activity in hPDCs. The percentage alkaline positive cells is used as a metric for early osteoblast differentiation.
FIG. 9: Gene expression of early (A) and late (B) bone markers in hPDCs treated with GM, OM or GM/OM supplemented with a growth factor mix (GF) containing TNFα, EGF, TGFβ1 and IL6. […]
(§2) Cell culture. […] For in vitro osteogenic differentiation assays, passage 6 to passage 9 hPDCs (pool of four different donors) were seeded at 3000 cells/cm^2 in either 96-well plates to assess proliferation and alkaline phosphatase activity or in the middle eight wells of a 24-well plate for quantifying gene expression. […]

[3] = tested on: human periosteum derived cells (hPDCs); experiment: Gene expression of bone markers in hPDCs in 2D culture (Taqman PCR); details: for iBSP mRNA levels: at the used concentrations (Ca 6 mM, Pi 4 mM)
Protocol: Same experimental design as in A. C) Identification of factors involved in osteoblast maturation. hPDCs were treated with OM and TGFβ1 for 6 days, followed by stimulation with GM (negative control), GM containing six factors or GM supplement with six minus one factor for 4 days. The factors are ascorbic acid (Asc. Ac., 57 μM), TNFα (50 ng/ml), IL6 (10 ng/ml), EGF (20 ng/ml), Ca (6 mM) and Pi (4 mM). To evaluate osteoblast maturation, gene expression of RUNX2, OSX, DLX5, iBSP, OC and RANKL is measured with Taqman PCR. […] D) Gene expression of osteoblast markers in hPDCs treated with OM and TGFβ1 for one week followed by GM supplemented with a growth factor mix (GF) containing ascorbic acid (57 μM), EGF (20 ng/ml), IL6 (10 ng/ml), Ca (6 mM), and Pi (4 mM) (“GF+C6P4”) or the same mix with reduced Ca (3 mM) and Pi (2 mM) ions (“GF+C3P2”). Gene expression is expressed as fold increase as compared to the GM condition. (n=3, error bars: standard deviations, *p≦00.05, Mann-Whitney U test). E) Gene expression of osteoblast markers in hPDCs treated with OM/TGFβ1 for 10 days, or with GM supplemented with ascorbic acid, EGF, IL6, C3P2 for 10 days (“EGF/IL6/C3P2”), or sequential stimulation with OM/TGFβ1 for 6 days followed by GM supplemented with ascorbic acid, EGF, IL6, C3P2 (“EGF/IL6/C3P2”) for 4 days. Gene expression is expressed as fold increase as compared to hPDCs cultured in OM/TGFβ1 (n=3, error bars: standard deviations, *p≦00.05, Mann-Whitney U test).
Cell culture. Periosteum was harvested from four patients (male/female/age) and periosteal cells were enzymatically released from the matrix. Tissue culture plastic adherent cells were expanded in DMEM medium supplemented with 10% fetal bovine serum as described previously (6). For in vitro osteogenic differentiation assays, passage 6 to passage 9 hPDCs (pool of four different donors) were seeded at 3000 cells/cm^2 in either 96-well plates to assess proliferation and alkaline phosphatase activity or in the middle eight wells of a 24-well plate for quantifying gene expression.
Medium was changed every other day. Supplemental factors were TNFα, IL6 (R&D Systems, USA), TGFβ1 (Stem Cell Research, USA), Ascorbic Acid (Sigma,USA), Ca and Pi (SigmaUSA). Calcium and phosphate ion working solutions were prepared as described in (7).
Quantitative PCR. Complementary DNA (cDNA) was obtained by reverse transcription of […] of total RNA with Oligo (dT)20 as primer (Superscript Ill; Invitrogen, Merelbeke, Belgium). Sybr Green PCR was performed in 10 pl reaction in a Rotor-Gene-Q (Qiagen) with following protocol: 95° C. for 3 seconds, 60° C. for 20 seconds. Primer sequences for specific Sybr green PCR was performed with human specific primers (Table 5). Taqman PCR primer/probe combinations (Applied Biosystems) were used in the in vitro osteogenesis assays.
Statistical Analysis. Experiments were carried out in triplicate. The error bars represent the standard error of the mean when cells from multiple donors are used. Standard deviations are shown when experiments are performed with a hPDC cell pool (n=3). Statistical comparison between experimental conditions was performed with a Mann-Whitney U test. A p-value ≦0.05 was considered as being statistically significant.

[4] = tested on: human periosteum derived cells (hPDCs); experiment: Proliferation of hPDCs in 2D culture (population doublings); details: 8 days, eight factors minus one
Protocol: as §1
as §2, with “culture. Periosteum was harvested from four patients (male/female/age) and periosteal cells were enzymatically released from the matrix.” for “culture.”

[5] = two stage protocol, six factors minus one, 4 days

Compound	RANKL expression in medium devoid of the factor [3, 5]	iBSP mRNA levels [3]	role in DLX5 transcription [3, 5]	other results
O=C1O[C@H]([C@@H](O)CO)C(O)=C1O [ascorbic acid, reference compound]	lower levels	–	–	mineralization [1]: promoted; ALP activity (staining) ([2]; hPDCs after OM and TGFβ1 one week, then GM with factor 2 days): promoted; RUNX2 gene expression when the factor was omitted from the mix [3, 5]: decreased
[Ca] [calcium]	–	decreased	required	–
IL6: cytokine ligand, 10 ng/ml	lower levels	–	–	–
TGFβ1: growth factor ligand, 10 ng/ml	–	–	–	effect on proliferation (leave-one-out) [4]: strong inducers; effect on ALP activity (leave-one-out) ([2]; hPDCs, 8 days, eight factors minus one): strong inducers
TNFα	lower levels	–	–	effect on osteogenic differentiation [3, 5]: strong inhibitor; expression levels of OSX, iBSP and OC when the factor was removed from the cocktail [3, 5]: enhanced
phosphate	–	decreased	required	–

From patent US20150307846A1, “GROWTH FACTOR COCKTAIL TO ENHANCE OSTEOGENIC DIFFERENTIATION OF MESENCHYMAL CELLS” (University of Pennsylvania, priority 2012, published 2015)
